Legend:
Assay in all cases: relative viability (nuclei count vs DMSO), 5 days (fraction); higher = more cells survive
LXF-289 = system: LXF-289
Outline: (§1)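 Lung cancer cell lines were seeded in 1536-well plates and dosed by pin tool the next day, with either a single drug or a fixed anchor-drug dose combined with five library-drug doses (not always all listed) spaced in √10 steps. Five days later, one step fixed the cells and stained their nuclei (final 0.05% Triton X-100, 1% formaldehyde, 1 ug/ml Hoechst), and nuclei were counted on 4× images. Relative viability is the nuclei count in treated wells divided by the count in vehicle wells, and each value is the median of duplicate plates.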

NCI-H1915 = system: NCI-H1915
Outline: as §1

NCI-H1944 = system: NCI-H1944
Outline: as §1

NCI-H441 = system: NCI-H441
Outline: as §1

NCI-H1755 = system: NCI-H1755
Outline: as §1

LU99A = system: LU99A
Outline: as §1

PC-3 [JPC-3] = system: PC-3 [JPC-3]
Outline: as §1

NCI-H650 = system: NCI-H650
Outline: as §1

BEN = system: BEN
Outline: as §1

LCLC-97TM1 = system: LCLC-97TM1
Outline: as §1

NCI-H2170 = system: NCI-H2170
Outline: as §1

LOU-NH91 = system: LOU-NH91
Outline: as §1

NCI-H460 = system: NCI-H460
Outline: as §1

SK-LU-1 = system: SK-LU-1
Outline: as §1

NCI-H2126 = system: NCI-H2126
Outline: as §1

NCI-H1666 = system: NCI-H1666
Outline: as §1

A-427 = system: A-427
Outline: as §1

NCI-H2023 = system: NCI-H2023
Outline: as §1

NCI-H23 = system: NCI-H23
Outline: as §1

NCI-H322M = system: NCI-H322M
Outline: as §1

HARA = system: HARA
Outline: as §1

Question: `O=C(O)CCCCC(CCSCc1ccccc1)SCc1ccccc1` (stereo not given) [CPI-613] + C[C@@H](Oc1cc(-c2cnn(C3CCNCC3)c2)cnc1N)c1c(Cl)ccc(F)c1Cl [Crizotinib] (partner 1 µM) was tested. Which relative viability (LXF-289; first compound 5 µM) did it give?
Answer: 0.776

Question: What about the relative viability (LXF-289; first compound 15.81 µM) of the same molecule?
Answer: 0.764

Question: And the relative viability (LXF-289; first compound 50 µM)?
Answer: 0.73

Question: And the relative viability (LXF-289; first compound 158.11 µM)?
Answer: 0.295

Question: What about the relative viability (LXF-289; first compound 500 µM) of the same molecule?
Answer: 0.0479

Question: What about the relative viability (NCI-H1915; first compound 5 µM) of the same molecule?
Answer: 0.895

Question: What about the relative viability (NCI-H1915; first compound 15.81 µM) of the same molecule?
Answer: 0.93

Question: And the relative viability (NCI-H1915; first compound 50 µM)?
Answer: 0.809

Question: And the relative viability (NCI-H1915; first compound 158.11 µM)?
Answer: 0.678

Question: What about the relative viability (NCI-H1915; first compound 500 µM) of the same molecule?
Answer: 0.446

Question: And the relative viability (NCI-H1944; first compound 5 µM)?
Answer: 1.22

Question: What about the relative viability (NCI-H1944; first compound 15.81 µM) of the same molecule?
Answer: 1.02

Question: What about the relative viability (NCI-H1944; first compound 50 µM) of the same molecule?
Answer: 1.07

Question: And the relative viability (NCI-H1944; first compound 158.11 µM)?
Answer: 1.06

Question: And the relative viability (NCI-H1944; first compound 500 µM)?
Answer: 0.891

Question: What about the relative viability (NCI-H441; first compound 5 µM) of the same molecule?
Answer: 0.685

Question: What about the relative viability (NCI-H441; first compound 15.81 µM) of the same molecule?
Answer: 0.683

Question: What about the relative viability (NCI-H441; first compound 50 µM) of the same molecule?
Answer: 0.635

Question: What about the relative viability (NCI-H441; first compound 158.11 µM) of the same molecule?
Answer: 0.303

Question: And the relative viability (NCI-H441; first compound 500 µM)?
Answer: 0.343

Question: What about the relative viability (NCI-H1755; first compound 5 µM) of the same molecule?
Answer: 0.795

Question: And the relative viability (NCI-H1755; first compound 15.81 µM)?
Answer: 0.835

Question: And the relative viability (NCI-H1755; first compound 50 µM)?
Answer: 0.822

Question: And the relative viability (NCI-H1755; first compound 158.11 µM)?
Answer: 0.386

Question: What about the relative viability (NCI-H1755; first compound 500 µM) of the same molecule?
Answer: 0.142

Question: And the relative viability (LU99A; first compound 5 µM)?
Answer: 0.618

Question: What about the relative viability (LU99A; first compound 15.81 µM) of the same molecule?
Answer: 0.546

Question: And the relative viability (LU99A; first compound 50 µM)?
Answer: 0.589

Question: And the relative viability (LU99A; first compound 158.11 µM)?
Answer: 0.168

Question: What about the relative viability (LU99A; first compound 500 µM) of the same molecule?
Answer: 0.0638

Question: What about the relative viability (PC-3 [JPC-3]; first compound 5 µM) of the same molecule?
Answer: 0.977

Question: What about the relative viability (PC-3 [JPC-3]; first compound 15.81 µM) of the same molecule?
Answer: 0.89

Question: And the relative viability (PC-3 [JPC-3]; first compound 50 µM)?
Answer: 0.889

Question: And the relative viability (PC-3 [JPC-3]; first compound 158.11 µM)?
Answer: 0.648

Question: What about the relative viability (PC-3 [JPC-3]; first compound 500 µM) of the same molecule?
Answer: 0.324

Question: What about the relative viability (NCI-H650; first compound 5 µM) of the same molecule?
Answer: 0.665

Question: And the relative viability (NCI-H650; first compound 15.81 µM)?
Answer: 0.703

Question: And the relative viability (NCI-H650; first compound 50 µM)?
Answer: 0.677

Question: And the relative viability (NCI-H650; first compound 158.11 µM)?
Answer: 0.626

Question: What about the relative viability (NCI-H650; first compound 500 µM) of the same molecule?
Answer: 0.649

Question: And the relative viability (BEN; first compound 5 µM)?
Answer: 0.802

Question: What about the relative viability (BEN; first compound 15.81 µM) of the same molecule?
Answer: 0.739

Question: And the relative viability (BEN; first compound 50 µM)?
Answer: 0.807

Question: What about the relative viability (BEN; first compound 158.11 µM) of the same molecule?
Answer: 0.743

Question: What about the relative viability (BEN; first compound 500 µM) of the same molecule?
Answer: 0.769

Question: What about the relative viability (LCLC-97TM1; first compound 5 µM) of the same molecule?
Answer: 0.465

Question: And the relative viability (LCLC-97TM1; first compound 15.81 µM)?
Answer: 0.516

Question: And the relative viability (LCLC-97TM1; first compound 50 µM)?
Answer: 0.379

Question: And the relative viability (LCLC-97TM1; first compound 158.11 µM)?
Answer: 0.11

Question: What about the relative viability (LCLC-97TM1; first compound 500 µM) of the same molecule?
Answer: 0.0433

Question: What about the relative viability (NCI-H2170; first compound 5 µM) of the same molecule?
Answer: 1.15

Question: What about the relative viability (NCI-H2170; first compound 15.81 µM) of the same molecule?
Answer: 1.18

Question: What about the relative viability (NCI-H2170; first compound 50 µM) of the same molecule?
Answer: 1.13

Question: What about the relative viability (NCI-H2170; first compound 158.11 µM) of the same molecule?
Answer: 0.746

Question: And the relative viability (NCI-H2170; first compound 500 µM)?
Answer: 0.335

Question: And the relative viability (LOU-NH91; first compound 5 µM)?
Answer: 0.801

Question: And the relative viability (LOU-NH91; first compound 15.81 µM)?
Answer: 0.692

Question: And the relative viability (LOU-NH91; first compound 50 µM)?
Answer: 0.765

Question: What about the relative viability (LOU-NH91; first compound 158.11 µM) of the same molecule?
Answer: 0.71

Question: What about the relative viability (LOU-NH91; first compound 500 µM) of the same molecule?
Answer: 0.722

Question: What about the relative viability (NCI-H460; first compound 5 µM) of the same molecule?
Answer: 0.889

Question: What about the relative viability (NCI-H460; first compound 15.81 µM) of the same molecule?
Answer: 0.892

Question: What about the relative viability (NCI-H460; first compound 50 µM) of the same molecule?
Answer: 0.728

Question: And the relative viability (NCI-H460; first compound 158.11 µM)?
Answer: 0.115

Question: And the relative viability (NCI-H460; first compound 500 µM)?
Answer: 0.0085

Question: What about the relative viability (SK-LU-1; first compound 5 µM) of the same molecule?
Answer: 1.03

Question: What about the relative viability (SK-LU-1; first compound 15.81 µM) of the same molecule?
Answer: 0.902

Question: What about the relative viability (SK-LU-1; first compound 50 µM) of the same molecule?
Answer: 0.644

Question: And the relative viability (SK-LU-1; first compound 158.11 µM)?
Answer: 0.167

Question: And the relative viability (SK-LU-1; first compound 500 µM)?
Answer: 0.104

Question: What about the relative viability (NCI-H2126; first compound 5 µM) of the same molecule?
Answer: 1.01

Question: And the relative viability (NCI-H2126; first compound 15.81 µM)?
Answer: 0.999

Question: What about the relative viability (NCI-H2126; first compound 50 µM) of the same molecule?
Answer: 0.942

Question: What about the relative viability (NCI-H2126; first compound 158.11 µM) of the same molecule?
Answer: 0.706

Question: What about the relative viability (NCI-H2126; first compound 500 µM) of the same molecule?
Answer: 0.23

Question: And the relative viability (NCI-H1666; first compound 5 µM)?
Answer: 0.863

Question: And the relative viability (NCI-H1666; first compound 15.81 µM)?
Answer: 0.995

Question: What about the relative viability (NCI-H1666; first compound 50 µM) of the same molecule?
Answer: 1.03

Question: What about the relative viability (NCI-H1666; first compound 158.11 µM) of the same molecule?
Answer: 0.236

Question: And the relative viability (NCI-H1666; first compound 500 µM)?
Answer: 0.131

Question: What about the relative viability (A-427; first compound 5 µM) of the same molecule?
Answer: 0.89

Question: And the relative viability (A-427; first compound 15.81 µM)?
Answer: 0.885

Question: What about the relative viability (A-427; first compound 50 µM) of the same molecule?
Answer: 0.754

Question: And the relative viability (A-427; first compound 158.11 µM)?
Answer: 0.175

Question: And the relative viability (A-427; first compound 500 µM)?
Answer: 0.126

Question: What about the relative viability (NCI-H2023; first compound 5 µM) of the same molecule?
Answer: 0.583

Question: And the relative viability (NCI-H2023; first compound 15.81 µM)?
Answer: 0.605

Question: And the relative viability (NCI-H2023; first compound 50 µM)?
Answer: 0.598

Question: And the relative viability (NCI-H2023; first compound 158.11 µM)?
Answer: 0.388

Question: What about the relative viability (NCI-H2023; first compound 500 µM) of the same molecule?
Answer: 0.0057

Question: And the relative viability (NCI-H23; first compound 5 µM)?
Answer: 0.542

Question: What about the relative viability (NCI-H23; first compound 15.81 µM) of the same molecule?
Answer: 0.563

Question: And the relative viability (NCI-H23; first compound 50 µM)?
Answer: 0.488

Question: What about the relative viability (NCI-H23; first compound 158.11 µM) of the same molecule?
Answer: 0.189

Question: And the relative viability (NCI-H23; first compound 500 µM)?
Answer: 0.0618

Question: What about the relative viability (NCI-H322M; first compound 5 µM) of the same molecule?
Answer: 0.917

Question: What about the relative viability (NCI-H322M; first compound 15.81 µM) of the same molecule?
Answer: 0.917

Question: And the relative viability (NCI-H322M; first compound 50 µM)?
Answer: 1

Question: And the relative viability (NCI-H322M; first compound 158.11 µM)?
Answer: 0.996

Question: And the relative viability (NCI-H322M; first compound 500 µM)?
Answer: 1.01

Question: And the relative viability (HARA; first compound 5 µM)?
Answer: 1.04

Question: What about the relative viability (HARA; first compound 15.81 µM) of the same molecule?
Answer: 1.09

Question: And the relative viability (HARA; first compound 50 µM)?
Answer: 1.02

Question: And the relative viability (HARA; first compound 158.11 µM)?
Answer: 0.397

Question: And the relative viability (HARA; first compound 500 µM)?
Answer: 0.247

From the supplement of paper PMC10307832
